Laboratory results: patent US20240270741A1 (Cogent Biosciences, Inc., priority 2023, published 2024)

The compounds below were run against FGFR2 (Homo sapiens, UniProt P21802) (assay: FGFR wild type enzyme assay (HTRF KinEASE-TK), FGFR2). Settings: Enz FGFR2 (nM), FGFR2 wild type enzyme.
Chain of FGFR2 (P21802 399-821 limits assumed): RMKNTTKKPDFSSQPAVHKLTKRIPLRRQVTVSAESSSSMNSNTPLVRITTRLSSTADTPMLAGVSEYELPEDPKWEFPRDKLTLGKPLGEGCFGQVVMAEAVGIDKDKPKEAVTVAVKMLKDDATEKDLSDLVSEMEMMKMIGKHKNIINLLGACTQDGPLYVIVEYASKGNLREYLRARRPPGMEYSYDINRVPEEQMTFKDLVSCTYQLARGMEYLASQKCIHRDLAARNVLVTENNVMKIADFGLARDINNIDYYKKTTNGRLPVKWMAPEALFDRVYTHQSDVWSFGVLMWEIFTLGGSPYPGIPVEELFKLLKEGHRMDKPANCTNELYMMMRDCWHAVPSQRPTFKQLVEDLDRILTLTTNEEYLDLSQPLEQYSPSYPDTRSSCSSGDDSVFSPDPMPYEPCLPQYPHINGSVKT
Work on `Cc1nn([C@H]2CC[C@@H](O)CC2)cc1-c1cc(Sc2ccccc2C#N)c2c(C#N)cnn2c1` [Example 313, 4-((2-cyanophenyl)thio)-6-(1-((1s,4s)-4-hydroxycyclohexyl)-3-methyl-1H-pyrazol-4-yl)pyrazolo[1,5-a]pyridine-3-carbonitrile] yielded an IC50 of 1 nM. `CC(=O)N[C@H]1CC[C@@H](n2cc(-c3cc(Sc4ccccn4)c4c(C#N)cnn4c3)cn2)CC1` [Example 314, N-((1s,4s)-4-(4-(3-cyano-4-(pyridin-2-ylthio)pyrazolo[1,5-a]pyridin-6-yl)-1H-pyrazol-1-yl)cyclohexyl)acetamide] showed an IC50 of 2 nM. `CC(=O)N[C@H]1CC[C@@H](n2cc(-c3cc(Sc4ncccc4C)c4c(C#N)cnn4c3)cn2)CC1` [Example 315, N-((1s,4s)-4-(4-(3-cyano-4-((3-methylpyridin-2-yl)thio)pyrazolo[1,5-a]pyridin-6-yl)-1H-pyrazol-1-yl)cyclohexyl)acetamide] showed an IC50 of 3 nM. Work on `CC(=O)N[C@H]1CC[C@@H](n2cc(-c3cc(Sc4ccccc4C#N)c4c(C#N)cnn4c3)cn2)CC1` [Example 316, N-((1s,4s)-4-(4-(3-cyano-4-((2-cyanophenyl)thio)pyrazolo [1,5-a]pyridin-6-yl)-1H-pyrazol-1-yl)cyclohexyl)acetamide] yielded an IC50 of 0.4 nM. `Cc1c(-c2cc(Sc3ccc(F)cc3C#N)c3c(C#N)cnn3c2)cnn1[C@H]1CC[C@@H](N(C)CCO)CC1` [Example 317, 4-((2-cyano-4-fluorophenyl)thio)-6-(1-((1s,4s)-4-((2-hydroxyethyl)(methyl)ami-no)cyclohexyl)-5-methyl-1H-pyrazol-4-yl)pyrazolo[1,5-a]pyridine-3-carbonitrile] showed an IC50 of 0.5 nM. Work on `Cc1c(-c2cc(Sc3ccccc3C#N)c3c(C#N)cnn3c2)cnn1[C@H]1CC[C@@H](N(C)CCO)CC1` [Example 318, 4-((2-cyanophenyl)thio)-6-(1-((1s,4s)-4-((2-hydroxyethyl)(methyl)ami-no)cyclohexyl)-5-methyl-1H-pyrazol-4-yl)pyrazolo[1,5-a]pyridine-3-carbonitrile] yielded an IC50 of 0.4 nM. With `CN[C@]1(C)CC[C@H](n2ncc(-c3cc(Sc4ccccc4C#N)c4c(C#N)cnn4c3)c2C)CC1` [Example 319, 4-((2-cyanophenyl)thio)-6-(5-methyl-1-((1s,4s)-4-methyl-4-(methylamino)cyclohexyl)-1H-pyrazol-4-yl)pyrazolo[1,5-a]pyridine-3-carbonitrile] the IC50 was 0.3 nM. With `CN[C@]1(C)CC[C@@H](n2ncc(-c3cc(Sc4ccccc4C#N)c4c(C#N)cnn4c3)c2C)CC1` [Example 320, 4-((2-cyanophenyl)thio)-6-(5-methyl-1-((1r,4r)-4-methyl-4-(methylamino)cyclohexyl)-1H-pyrazol-4-yl)pyrazolo[1,5-a]pyridine-3-carbonitirle] the IC50 was 0.3 nM. `CC(=O)N1CC[C@]2(CC[C@@H](n3ncc(-c4cc(Sc5ccccc5C#N)c5c(C#N)cnn5c4)c3C)CC2)C1` [Example 321, 6-(1-((5r,8r)-2-acetyl-2-azaspiro[4.5]decan-8-yl)-5-methyl-1H-pyrazol-4-yl)-4-((2-cyanophenyl)thio)pyrazolo [1,5-a]pyridine-3-carbonitrile] gave an IC50 of 1 nM. Compound `CC(=O)N1CC[C@]2(CC[C@H](n3ncc(-c4cc(Sc5ccccc5C#N)c5c(C#N)cnn5c4)c3C)CC2)C1` [Example 322, 6-(1-((5s,8s)-2-acetyl-2-azaspiro[4.5]decan-8-yl)-5-methyl-1H-pyrazol-4-yl)-4-((2-cyanophenyl)thio)pyrazolo [1,5-a]pyridine-3-carbonitrile] has an IC50 of 0.6 nM. `Cc1c(-c2cc(Sc3ccc(F)cc3C#N)c3c(C#N)cnn3c2)cnn1[C@H]1CC[C@](C)(O)CC1` [Example 323, 4-((2-cyano-4-fluorophenyl)thio)-6-(1-((1r,4r)-4-hydroxy-4-methylcyclohexyl)-5-methyl-1H-pyrazol-4-yl)pyrazolo[1,5-a]pyridine-3-carbonitrile] gave an IC50 of 1 nM. For `Cc1c(-c2cc(Sc3ccc(F)cc3C#N)c3c(C#N)cnn3c2)cnn1[C@H]1CC[C@@](C)(O)CC1` [Example 324, 4-((2-cyano-4-fluorophenyl)thio)-6-(1-((1s,4s)-4-hydroxy-4-methylcyclohexyl)-5-methyl-1H-pyrazol-4-y)pyrazolo[1,5-a]pyridine-3-carbonitrile], the IC50 was 1 nM. In the case of `Cc1c(-c2cc(Sc3ccc(F)cc3C#N)c3c(C#N)cnn3c2)cnn1[C@H]1CC[C@@](C)(N)CC1` [Example 325, 6-(1-((1s,4s)-4-amino-4-methylcyclohexyl)-5-methyl-1H-pyrazol-4-yl)-4-((2-cyano-4-fluorophenyl)thio)pyrazolo [1,5-a]pyridine-3-carbonitrile], the IC50 is reported as 0.5 nM. `CN[C@]1(C)CC[C@H](n2ncc(-c3cc(Sc4ccc(F)cc4C#N)c4c(C#N)cnn4c3)c2C)CC1` [Example 326, 4-((2-cyano-4-fluoorphenyl)thio)-6-(5-methyl-1-((1s,4s)-4-methyl-4-(methylamino)cyclohxyl)-1H-pyrazol-4-eyl)pyrazolo[1,5-a]pyridine-3-carbonitrile] showed an IC50 of 1 nM. Work on `Cc1c(-c2cc(Sc3ccc(F)cc3C#N)c3c(C#N)cnn3c2)cnn1[C@H]1CC[C@@](C)(N(C)C)CC1` [Example 327, 4-((2-cyano-4-fluorophenyl)thio)-6-(1-((1s,4s)-4-(dimethylamino)-4-methylcyclohexyl)-5-methyl-1H-pyrazol-4-yl)pyrazolo[1,5-a]pyridine-3-carbonitrile] yielded an IC50 of 0.5 nM. For `Cc1c(-c2cc(Sc3ncc(F)cc3F)c3c(C#N)cnn3c2)cnn1C1CCN(C)CC1` [Example 328, 4-((3,5-difluoropyridin-2-yl)thio)-6-(5-methyl-1-(1-methylpiperidin-4-yl)-1H-pyrazol-4-yl)pyrazolo[1,5-a]pyridine-3-carbonitrile], the IC50 was 3 nM. Compound `Cc1c(-c2cc(Sc3ccc(F)cn3)c3c(C#N)cnn3c2)cnn1C1CCN(C)CC1` [Example 329, 4-((5-fluoropyridin-2-yl)thio)-6-(5-methyl-1-(1-methylpiperidin-4-yl)-1H-pyrazol-4-yl)pyrazolo[1,5-a]pyridine-3-carbonitrile] has an IC50 of 5 nM. For `Cc1c(-c2cc(Sc3ccc(F)cc3C#N)c3c(C#N)cnn3c2)cnn1C1CCN(C(C)C)CC1` [Example 330, 4-((2-cyano-4-fluorophenyl)thio)-6-(1-(1-isopropylpiperidin-4-yl)-5-methyl-1H-pyrazol-4-yl)pyrazolo[1,5-a]pyridine-3-carbonitrile], the IC50 was 1 nM. Work on `Cc1c(-c2cc(Sc3ccc(F)cc3C#N)c3c(C#N)cnn3c2)cnn1C1CCN(C[C@@H](C)O)CC1` [Example 331, (R)-4-((2-cyano-4-fluorophenyl)thio)-6-(1-(1-(2-hydroxypropyl)piperidin-4-yl)-5-methyl-1H-pyrazol-4-yl)pyrazolo[1,5-a]pyridine-3-carbonitrile] yielded an IC50 of 1 nM. Work on `Cc1c(-c2cc(Sc3ccc(F)cc3C#N)c3c(C#N)cnn3c2)cnn1[C@H]1CCCN(C(=O)CO)C1` [Example 332, (S)-4-((2-cyano-4-fluorophenyl)thio)-6-(1-(1-(2-hydroxyacetyl)piperidin-3-yl)-5-methyl-1H-pyrazol-4-yl)pyrazolo[1,5-a]pyridine-3-carbonitrile] yielded an IC50 of 1 nM.

Same assay, conditions: Enz FGFR2 (nM), FGFR2 wild type enzyme assay
`Cc1c(-c2cc(Sc3ccc(F)cc3C#N)c3c(C#N)cnn3c2)cnn1[C@H]1CCCNC1` [Example 333, (S)-4-((2-cyano-4-fluorophenyl)thio)-6-(5-methyl-1-(piperidin-3-yl)-1H-pyrazol-4-yl)pyrazolo[1,5-a]pyridine-3-carbonitrile] was tested, and the IC50 was 1 nM.
